Experimental data reported in patent publication US10807986B2, “Fused pyrimidine compound or salt thereof” (TAIHO PHARMACEUTICAL CO., LTD., priority 2016, dated 2020).

Test system: TT cells (human thyroid cancer cell line with RET activating mutation)
Assay: In vivo antitumor effect, mice subcutaneously implanted with TT cells
Set-up: species or system BALB/cA Jcl-nu/nu male mice
Settings: 100 mg/kg/day oral for 14 days, day 15, Table 54

SMILES	T/C (%)	TV (mm^3) Day 15 Mean ± SE
COCc1ccc(NC(=O)c2c(C#CCN3CCOCC3)n(C3(C)CC3)c3ncnc(N)c23)cc1 [Example 85, 4-amino-N-[4-(methoxymethyl)phenyl]-7-(1-methylcyclopropyl)-6-(3-morpholinoprop-1-yn-1-yl)-7H-pyrrolo[2,3-d]pyrimidine-5-carboxamide]	23%	139.42 mm^3

Same assay, conditions: 100 mg/kg/day oral for 14 days, day 15 relative to day 0, Table 54

SMILES	RTV Day 15 Mean ± SE
COCc1ccc(NC(=O)c2c(C#CCN3CCOCC3)n(C3(C)CC3)c3ncnc(N)c23)cc1 [Example 85, 4-amino-N-[4-(methoxymethyl)phenyl]-7-(1-methylcyclopropyl)-6-(3-morpholinoprop-1-yn-1-yl)-7H-pyrrolo[2,3-d]pyrimidine-5-carboxamide]	0.87

Same assay, conditions: 100 mg/kg/day oral, grouping day (day 0), Table 54

SMILES	TV (mm^3) Day 0 Mean ± SE
COCc1ccc(NC(=O)c2c(C#CCN3CCOCC3)n(C3(C)CC3)c3ncnc(N)c23)cc1 [Example 85, 4-amino-N-[4-(methoxymethyl)phenyl]-7-(1-methylcyclopropyl)-6-(3-morpholinoprop-1-yn-1-yl)-7H-pyrrolo[2,3-d]pyrimidine-5-carboxamide]	169.45 mm^3

Test system: not given
Assay: not given
Settings: mouse, microsomes, 0.5 h, 1 μM

SMILES	Remaining (%)
C/C=C/c1ccc(NC(=O)c2c(OCC)n(C3(C)CC3)c3ncnc(N)c23)cc1 [Example 117, (E)-4-amino-6-ethoxy-7-(1-methylcyclopropyl)-N-(4-(prop-1-en-1-yl)phenyl)-7H-pyrrolo[2,3-d]pyrimidine-5-carboxamide]	53%

Test system: not listed separately
Assay: Evaluation of stability in liver microsome
Settings: mouse liver microsome 0.25 mg/mL, test compound 1 μM, 37° C., 30 minutes

Remaining (%)	SMILES
58%	COCc1ccc(NC(=O)c2c(-c3ccc(F)nc3)n(C3(C)CC3)c3ncnc(N)c23)cc1 [Example 190, 4-amino-6-(6-fluoropyridin-3-yl)-N-(4-(methoxymethyl)phenyl)-7-(1-methylcyclopropyl)-7H-pyrrolo[2,3-d]pyrimidine-5-carboxamide]
53%	COCc1ccc(NC(=O)c2c(C#Cc3cnc[nH]3)n(C3(C)CC3)c3ncnc(N)c23)cc1 [Example 191, 6-((1H-imidazol-5-yl)ethynyl)-4-amino-N-(4-(methoxymethyl)phenyl)-7-(1-methylcyclopropyl)-7H-pyrrolo[2,3-d]pyrimidine-5-carboxamide]
51%	COCc1ccc(NC(=O)c2c(C#Cc3cncs3)n(C3(C)CC3)c3ncnc(N)c23)cc1 [Example 193, 4-amino-N-[4-(methoxymethyl)phenyl]-7-(1-methylcyclopropyl)-6-(thiazol-5-ylethynyl)-7H-pyrrolo[2,3-d]pyrimidine-5-carboxamide]
67%	COCc1ccc(NC(=O)c2c(-c3cncnc3)n(C3(C)CC3)c3ncnc(N)c23)cc1 [Example 194, 4-amino-N-(4-(methoxymethyl)phenyl)-7-(1-methylcyclopropyl)-6-(pyrimidin-5-yl)-7H-pyrrolo[2,3-d]pyrimidine-5-carboxamide]
57%	COCc1ccc(NC(=O)c2c(C#CCN(C)C)n(C3(C)CC3)c3ncnc(N)c23)cc1 [Example 198, 4-amino-6-(3-(dimethylamino)prop-1-yn-1-yl)-N-(4-(methoxymethyl)phenyl)-7-(1-methylcyclopropyl)-7H-pyrrolo[2,3-d]pyrimidine-5-carboxamide]
68%	COCc1ccc(NC(=O)c2c(C3=CCOCC3)n(C3(C)CC3)c3ncnc(N)c23)cc1 [Example 203, 4-amino-6-(3,6-dihydro-2H-pyran-4-yl)-N-(4-(methoxymethyl)phenyl)-7-(1-methylcyclopropyl)-7H-pyrrolo[2,3-d]pyrimidine-5-carboxamide]
83%	COCc1ccc(NC(=O)c2c(C(C)O)n(C3(C)CC3)c3ncnc(N)c23)cc1 (centres unmarked) [Example 204, 4-amino-6-(1-hydroxyethyl)-N-(4-(methoxymethyl)phenyl)-7-(1-methylcyclopropyl)-7H-pyrrolo[2,3-d]pyrimidine-5-carboxamide]
72%	CCc1c(C(=O)Nc2ccc(COC)cc2)c2c(N)ncnc2n1C1(C)CC1 [Example 207, 4-amino-6-ethyl-N-(4-(methoxymethyl)phenyl)-7-(1-methylcyclopropyl)-7H-pyrrolo[2,3-d]pyrimidine-5-carboxamide]

Continued, compound first:

SMILES	Remaining (%)
COCc1ccc(NC(=O)c2c(C#Cc3ccc(OC)nc3)n(C3(C)CC3)c3ncnc(N)c23)cc1 [Example 192, 4-amino-N-(4-(methoxymethyl)phenyl)-6-((6-methoxypyridin-3-yl)ethynyl)-7-(1-methylcyclopropyl)-7H-pyrrolo[2,3-d]pyrimidine-5-carboxamide]	79%
COCc1ccc(NC(=O)c2c(C#Cc3cncc(C#N)c3)n(C3(C)CC3)c3ncnc(N)c23)cc1 [Example 195, 4-amino-6-((5-cyanopyridin-3-yl)ethynyl)-N-(4-(methoxymethyl)phenyl)-7-(1-methylcyclopropyl)-7H-pyrrolo[2,3-d]pyrimidine-5-carboxamide]	70%
COCc1ccc(NC(=O)c2c(C#Cc3cncnc3)n(C3(C)CC3)c3ncnc(N)c23)cc1 [Example 196, 4-amino-N-(4-(methoxymethyl)phenyl)-7-(1-methylcyclopropyl)-6-(pyrimidin-5-ylethynyl)-7H-pyrrolo[2,3-d]pyrimidine-5-carboxamide]	53%
COCCN(C)CC#Cc1c(C(=O)Nc2ccc(COC)cc2)c2c(N)ncnc2n1C1(C)CC1 [Example 197, 4-amino-6-(3-((2-methoxyethyl)(methyl)amino)prop-1-yn-1-yl)-N-(4-(methoxymethyl)phenyl)-7-(1-methylcyclopropyl)-7H-pyrrolo[2,3-d]pyrimidine-5-carboxamide]	52%
COCc1ccc(NC(=O)c2c(C#CCC3CCCCC3)n(C3(C)CC3)c3ncnc(N)c23)cc1 [Example 199, 4-amino-6-(3-cyclohexylprop-1-yn-1-yl)-N-(4-(methoxymethyl)phenyl)-7-(1-methylcyclopropyl)-7H-pyrrolo[2,3-d]pyrimidine-5-carboxamide]	80%
COCc1ccc(NC(=O)c2c(C#CC3CCOCC3)n(C3(C)CC3)c3ncnc(N)c23)cc1F [Example 205, 4-amino-N-(3-fluoro-4-(methoxymethyl)phenyl)-7-(1-methylcyclopropyl)-6-((tetrahydro-2H-pyran-4-yl)ethynyl)-7H-pyrrolo[2,3-d]pyrimidine-5-carboxamide]	58%
COCc1ccc(NC(=O)c2c(C#CCN3CCOCC3)n(C3(C)CC3)c3ncnc(N)c23)cc1F [Example 206, 4-amino-N-(3-fluoro-4-(methoxymethyl)phenyl)-7-(1-methylcyclopropyl)-6-(3-morpholinoprop-1-yn-1-yl)-7H-pyrrolo[2,3-d]pyrimidine-5-carboxamide]	77%
